Test system: IL-10 production by OvA-stimulated splenocytes
Test: OvA-stimulated production of IL-10 by splenocytes of OvA-immunized mice
[1] = OvA/Alum, 1.0 μg/kg i/p, OvA 10 μg/ml
[2] = OvA/Alum, 1.0 μg/kg i/p, OvA 25 μg/ml
[3] = OvA/Alum, 1.0 μg/kg i/p, OvA 50 μg/ml
[4] = OvA/Alum, 1.0 μg/kg i/p, OvA 100 μg/ml
[5] = OvA/FA, 0.1 μg/kg i/p, OvA 10 μg/ml
[6] = OvA/FA, 0.1 μg/kg i/p, OvA 25 μg/ml
[7] = OvA/FA, 0.1 μg/kg i/p, OvA 50 μg/ml
[8] = OvA/FA, 0.1 μg/kg i/p, OvA 100 μg/ml
[9] = OvA/FA, 1.0 μg/kg i/p, OvA 10 μg/ml
[10] = OvA/FA, 1.0 μg/kg i/p, OvA 25 μg/ml
[11] = OvA/FA, 1.0 μg/kg i/p, OvA 50 μg/ml
[12] = OvA/FA, 1.0 μg/kg i/p, OvA 100 μg/ml

Protocol: The OvA was administered subcutaneously to the crest in a volume of 200 μl. Mice were immunized on day 1 with OvA in complete Freund's adjuvant (CFA; Sigma) and on day 15 with the antigen in incomplete Freund's adjuvant (IFA; Sigma). The immune response was analyzed on day 29. Mice were also immunized with 10 μg/mouse of OvA using Alum as an adjuvant.
Thymuses and spleens from mice of each treatment group were pooled, and then minced with scissors. The minced tissues were suspended in sterile PBS to form cell suspensions, filtered through a double gauze layer and centrifuged. Cells were washed twice with PBS, re-suspended in RPMI-1640 (Sigma) with 2.0 mM of L-glutamine, 50 μM of mercaptoethanol, and 10 μg/ml of gentamycin (complete medium); and cell counts were made. (The splenocyte suspension was washed with a 0.86% solution of NH4Cl to pre-lyse erthrocytes.)
Assessment of Mitogen- and Antigen-Induced Production of Cytokines: Thymic cells (1×10^6/well) in complete medium with 2% FCS were stimulated with ConA (0, 1, and 2 μg/ml). Splenocytes (1×10^6/well) in complete medium with 5% FCS were stimulated with ConA (0, 1, and 5 μg/ml) and with OvA (0-100 μg/ml). […] Supernatants from OvA-stimulated cultures were collected after 72 hours. Supernatants from both cultures were frozen, and kept at 20° C. Concentrations of IL-2, IL-4, IL-10, IL-12R40 and IFNγ in the supernatants were determined by solid-phase EIA with EIA Expansion Kits, available from BD Biosciences (formerly Pharmingen), in accordance with the manufacturer's instructions.

Which results are given for `N[C@H](CCC(=O)N[C@@H](Cc1c[nH]c2ccccc12)C(=O)O)C(=O)O` [SCV-07, γ-D-glutamyl-L-tryptophan]?
Production of IL-10 by splenocytes [1]: 1758.9 pg/mL; Production of IL-10 by splenocytes, % (% of control) [1]: 86.4%; Production of IL-10 by splenocytes [2]: 1829.8 pg/mL; Production of IL-10 by splenocytes, % (% of control) [2]: 89.9%; Production of IL-10 by splenocytes [3]: 1584.7 pg/mL; Production of IL-10 by splenocytes, % (% of control) [3]: 77.8%; Production of IL-10 by splenocytes [4]: 1840.7 pg/mL; Production of IL-10 by splenocytes, % (% of control) [4]: 90.4%; Production of IL-10 by splenocytes (OvA/Alum, 1.0 μg/kg per os, OvA 0 μg/ml): 1741.5 pg/mL; Production of IL-10 by splenocytes (OvA/Alum, 1.0 μg/kg per os, OvA 10 μg/ml): 2220.9 pg/mL; Production of IL-10 by splenocytes (OvA/Alum, 1.0 μg/kg per os, OvA 25 μg/ml): 1957.2 pg/mL; Production of IL-10 by splenocytes (OvA/Alum, 1.0 μg/kg per os, OvA 50 μg/ml): 1920.4 pg/mL; Production of IL-10 by splenocytes (OvA/Alum, 1.0 μg/kg per os, OvA 100 μg/ml): 1898.4 pg/mL; Production of IL-10 by splenocytes (OvA/Alum, 10.0 μg/kg per os, OvA 0 μg/ml): 816.4 pg/mL; Production of IL-10 by splenocytes (OvA/Alum, 10.0 μg/kg per os, OvA 10 μg/ml): 1127.5 pg/mL; Production of IL-10 by splenocytes (OvA/Alum, 10.0 μg/kg per os, OvA 25 μg/ml): 1272.5 pg/mL; Production of IL-10 by splenocytes (OvA/Alum, 10.0 μg/kg per os, OvA 50 μg/ml): 1608.4 pg/mL; Production of IL-10 by splenocytes (OvA/Alum, 10.0 μg/kg per os, OvA 100 μg/ml): 1780.1 pg/mL; Production of IL-10 by splenocytes (OvA/FA, 0.1 μg/kg i/p, OvA 0 μg/ml): 785.1 pg/mL; Production of IL-10 by splenocytes [5]: 989.4 pg/mL; Production of IL-10 by splenocytes, % (% of control) [5]: 126.0%; Production of IL-10 by splenocytes [6]: 1234.3 pg/mL; Production of IL-10 by splenocytes, % (% of control) [6]: 157.2%; Production of IL-10 by splenocytes [7]: 1194.2 pg/mL; Production of IL-10 by splenocytes, % (% of control) [7]: 152.1%; Production of IL-10 by splenocytes [8]: 1502.4 pg/mL; Production of IL-10 by splenocytes, % (% of control) [8]: 191.4%; Production of IL-10 by splenocytes (OvA/FA, 0.1 μg/kg per os, OvA 0 μg/ml): 702.5 pg/mL; Production of IL-10 by splenocytes (OvA/FA, 0.1 μg/kg per os, OvA 10 μg/ml): 958.9 pg/mL; Production of IL-10 by splenocytes (OvA/FA, 0.1 μg/kg per os, OvA 25 μg/ml): 1478.2 pg/mL; Production of IL-10 by splenocytes (OvA/FA, 0.1 μg/kg per os, OvA 50 μg/ml): 1739.2 pg/mL; Production of IL-10 by splenocytes (OvA/FA, 0.1 μg/kg per os, OvA 100 μg/ml): 1895.4 pg/mL; Production of IL-10 by splenocytes (OvA/FA, 1.0 μg/kg i/p, OvA 0 μg/ml): 457.4 pg/mL; Production of IL-10 by splenocytes [9]: 813.4 pg/mL; Production of IL-10 by splenocytes, % (% of control) [9]: 177.8%; Production of IL-10 by splenocytes [10]: 774.1 pg/mL; Production of IL-10 by splenocytes, % (% of control) [10]: 169.2%; Production of IL-10 by splenocytes [11]: 852.4 pg/mL; Production of IL-10 by splenocytes, % (% of control) [11]: 186.4%; Production of IL-10 by splenocytes [12]: 963.8 pg/mL; Production of IL-10 by splenocytes, % (% of control) [12]: 210.7%; Production of IL-10 by splenocytes (OvA/FA, 1.0 μg/kg per os, OvA 0 μg/ml): 407.6 pg/mL; Production of IL-10 by splenocytes (OvA/FA, 1.0 μg/kg per os, OvA 10 μg/ml): 953.1 pg/mL; Production of IL-10 by splenocytes (OvA/FA, 1.0 μg/kg per os, OvA 25 μg/ml): 984.1 pg/mL; Production of IL-10 by splenocytes (OvA/FA, 1.0 μg/kg per os, OvA 50 μg/ml): 1120.7 pg/mL; Production of IL-10 by splenocytes (OvA/FA, 1.0 μg/kg per os, OvA 100 μg/ml): 1292.2 pg/mL; Production of IL-10 by splenocytes (OvA/FA, 10.0 μg/kg per os, OvA 0 μg/ml): 627.3 pg/mL; Production of IL-10 by splenocytes (OvA/FA, 10.0 μg/kg per os, OvA 10 μg/ml): 831.6 pg/mL; Production of IL-10 by splenocytes (OvA/FA, 10.0 μg/kg per os, OvA 25 μg/ml): 1092.7 pg/mL; Production of IL-10 by splenocytes (OvA/FA, 10.0 μg/kg per os, OvA 50 μg/ml): 1356.1 pg/mL; Production of IL-10 by splenocytes (OvA/FA, 10.0 μg/kg per os, OvA 100 μg/ml): 1569.3 pg/mL

— patent US20090074815A1, “Immunomodulator Compounds as Vaccine Enhancers” (SCICLONE PHARMACEUTICALS, INC., priority 2005, published 2009)
